{"source": "patent US20260201336A1", "about": "“REPROGRAMMED SMOOTH MUSCLE CELLS AND METHODS RELATED THERETO” (EMORY UNIVERSITY, priority 2022, published 2026)", "system": "human dermal fibroblasts (HDFs)", "experiment": "qRT-PCR of HDFs treated with ATRA for four days", "format": "cell-based", "description": "Cell culture and maintenance. Human dermal fibroblasts (HDFs) were isolated from the dermis of human juvenile foreskin and expanded in Dulbecco's Modified Eagle's medium (DMEM) (Lonza, Basel, SWI) supplemented with 10% fetal bovine serum (FBS) (Sigma-Aldrich, St. Louis, MO), 1× Antibiotic-Antimycotic (Anti-Anti) (Gibco, Waltham, MA), 1× MEM Non-Essential Amino Acids (MEM NEAA) (Gibco, Waltham, MA), and 1× GlutaMAX Supplement (GlutaMAX) (Gibco, Waltham, MA) at 37° C. with 5% CO2. The Platinum-A (Plat-A) retroviral packaging cell line (Cell Biolabs, San Diego, CA) was maintained in the same medium without Anti-Anti and used for transfection at passages four to seven. HDFs and directly reprogrammed smooth muscle cells (rSMCs) were maintained in DMEM with low glucose (HyClone, Logan, UT) supplemented with 5% FBS, Anti-Anti, MEM NEAA, and GlutaMAX.\nGeneration of directly reprogrammed SMCs. For direct reprogramming of HDFs into contractile SMCs, HDFs were seeded at a density of 1.5×10^5 cells per ml in DMEM (Lonza) supplemented with 10% FBS (Sigma-Aldrich), Anti-Anti (Gibco), MEM NEAA (Gibco), and GlutaMAX (Gibco) at 37° C. with 5% CO2. The cells were infected overnight with filtered retroviral medium containing four μg per ml of polybrene (Sigma-Aldrich) with or without 0.4, 2, or 10 μM per liter of all-trans retinoic acid (ATRA) (Sigma-Aldrich), and the viral medium was replaced with DMEM/low glucose (HyClone) supplemented with 5% FBS, Anti-Anti, MEM NEAA, and GlutaMAX with or without ATRA for 24 hrs. The viral infection was repeated twice, and the cells were maintained in DMEM/low glucose containing 5% FBS with or without ATRA for the duration of culture.\n[…] reverse transcriptase polymerase chain reaction (qRT-PCR). Total ribonucleic acid (RNA) was isolated from cells using the RNeasy Mini Kit (QIAGEN, Hilden, GE) or TRIsure (Bioline, Memphis, TN), according to the manufacturer's instructions. The extracted RNA was reverse transcribed with TaqMan Reverse Transcription Reagents (Applied Biosystems, Foster City, CA), according to the manufacturer's instructions. The synthesized cDNA was amplified with PowerUP SYBR Green Master Mix (Thermo Fisher Scientific, Waltham, MA), according to the manufacturer's instructions, and was subject to qRT-PCR with human or mouse specific primers, as shown in Table 1. Quantitative assessment of RNA levels was performed using a QuantStudio 3 96-well 0.2-ml real-time PCR system (Applied Biosystems). The relative messenger RNA (mRNA) expression was normalized to GAPDH.", "key": {"[1]": {"conditions": "ATRA-treated vs untreated HDFs, four days"}}, "data": [{"smiles": "CC1=C(/C=C/C(C)=C/C=C/C(C)=C/C(=O)O)C(C)(C)CCC1", "note": "[ATRA, (2E,4E,6E,8E)-3,7-dimethyl-9-(2,6,6-trimethylcyclohexen-1-yl) nona-2,4,6,8-tetraenoic acid]", "values": [{"measurement": "expression of S100A4", "setting": "[1]", "value": "substantially reduced"}, {"measurement": "fold increase of SMC gene expression, CALD1", "setting": "[1]", "value": 1.1, "unit": "fold"}, {"measurement": "fold increase of SMC gene expression, MYH11", "setting": "[1]", "value": 6.1, "unit": "fold"}, {"measurement": "mRNA expression of STRA6 and the SMC genes", "setting": "[1]", "value": "increased"}, {"measurement": "most effective concentration for induction of SMC gene expression", "setting": "among the tested ATRA concentrations, HDFs", "value": 2, "unit": "µM"}]}]}
